Results: patent US6632794B1, “Insulin-like growth factor agonist molecules” (Genentech, Inc., priority 1997, dated 2003)
Several values for one entry are separate records, joined by “and”; a condition that tells them apart may be missing. Equal values may be shown once. Positions of bridges follow the written chain, without caps; N, C: chain ends. Residues, ends and D or L forms follow the SMILES beside them.

Key:
IGFBP-1 [1] = target: T1, IGFBP-1 (Homo sapiens, UniProt P08833); assay: BIAcore competition assay, IGFBP-1 binding to IGF-I; details: bp1-01 Ala-scan variants by BIAcore; wt = bp1-01
T1 construct: biotin (chemical label, EZ-LINK NHS-SS-Biotin)
T1 sequence (P08833 26-259): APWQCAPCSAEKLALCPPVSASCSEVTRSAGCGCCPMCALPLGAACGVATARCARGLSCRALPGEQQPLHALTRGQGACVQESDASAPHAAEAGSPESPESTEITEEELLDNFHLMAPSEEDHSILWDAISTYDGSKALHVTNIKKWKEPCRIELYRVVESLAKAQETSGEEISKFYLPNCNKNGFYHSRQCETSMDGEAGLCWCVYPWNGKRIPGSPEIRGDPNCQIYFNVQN
Description: (§1) Two series of synthetic peptide variants were generated to determine which side chains of the bp1-01 peptide might contribute directly to binding IGFBP-1. In the first series an alanine-scanning approach (Cunningham and Wells, Science, 244: 1081-1085 (1989)) was used to remove that portion of each side chain beyond the beta carbon. The contribution of these atoms to the free energy of binding of the peptide to IGFBP-1 was then assessed by measuring the potency (IC50) of the variant for inhibiting IGFBP-1 binding to IGF-I or IGF-II in a BIAcore™competition assay, analogous to that described for IGFBP-3 (see Example 7).
(§2) Substitutions at the N-terminus or C-terminus yielded affinity improvements. […] All of these peptides had similar or improved apparent affinity for IGFBP-1 as compared with bp1-01 and bp1-02 and are thus expected to increase the availability of IGF-I in an in vitro cell culture assay.

IGFBP-3 [2] = target: T2, IGFBP-3 (Homo sapiens, UniProt P17936); assay: KIRA assay of IGF-I activity with IGF-I plus IGFBP-3 and peptide; assay type: cell-based; details: FIG. 37D
T2 sequence (P17936 28-291): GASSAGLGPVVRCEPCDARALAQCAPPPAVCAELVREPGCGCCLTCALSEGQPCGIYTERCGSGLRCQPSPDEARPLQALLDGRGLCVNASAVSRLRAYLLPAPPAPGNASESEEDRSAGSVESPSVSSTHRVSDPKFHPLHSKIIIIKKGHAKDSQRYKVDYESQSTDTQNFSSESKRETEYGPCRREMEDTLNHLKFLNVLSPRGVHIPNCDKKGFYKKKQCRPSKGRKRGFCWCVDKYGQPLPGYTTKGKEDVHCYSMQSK
Description: (§3) C. In Vitro Activation (KIRA)
(§4) The ability of several synthetic peptides to block IGF-I binding to IGFBPs and release functional IGF-I was tested in a KIRA assay of IGF-I activity, as described in Example 1. Cells were treated with IGF-I alone, peptide alone, peptide plus IGF-I, IGF-I plus binding protein (IGFBP-1 or IGFBP-3), or IGF-I plus binding protein (IGFBP-1 or IGFBP-3) and peptide.
It is believed that this would drop to 30 uM with a 1:1 ratio.

IGFBP-3 [3] = target: T2, IGFBP-3; assay: Biotin-BP plate assay, biotinylated IGFBP-3 binding to IGF-I (control); details: FIG. 34
Description: (§5) For inhibition of IGFBP-1 binding, IGFBP-1 (as well as IGFBP-3 as a control) were biotinylated as described above. MAXISORP™plates were coated and blocked as described above, using 2 μg/mL IGF-I. In a separate plate, serial dilutions of peptide were premixed with a constant concentration (20 nM) of biotinylated IGFBP-1. After 20 min. at room temperature, the mixture was added to the IGF-I plate. The peptide/IGFBP mix was then removed and the plate was washed ten times with PBS buffer containing 0.05% TWEEN-20™ surfactant. Bound biotin-IGFBP-1 was then detected using streptavidin-conjugated horse radish peroxidase, and a chromogenic substrate.

IGFBP-1 [4] = target: T1, IGFBP-1; assay: KIRA assay of IGF-I activity with IGF-I plus IGFBP-1 and peptide; assay type: cell-based; details: peptide plus IGF-I plus IGFBP-1; read-out: IC50 for blocking the inhibition of IGF-I activity by IGFBP-1 (KIRA)
Description: as §3, §4

IGFBP-1 [5] = target: T1, IGFBP-1; assay: BIAcore competition assay, IGFBP-1 binding to IGF-II; details: bp1-01 Ala-scan variants by BIAcore
Description: as §1

IGFBP-1 [6] = target: T1, IGFBP-1; assay: Biotin-BP plate (ELISA) assay, biotinylated IGFBP-1 binding to IGF-I
Description: 1. Biotin-BP Assay (for IGFBP-1 Binders)
as §5
A second series of peptides made use of non-natural amino acids to probe whether other structural features such as an added methyl group at the alpha carbon, or an isomer (D-alanine) could affect peptide binding to IGFBP-1.
as §2

IGFBP-1 [7] = target: T1, IGFBP-1; assay: BIAcore kinetics on immobilized IGFBP-1; assay type: binding; details: IGFBP-1 coupled to dextran chip
Excerpt: The kinetics of bp1-01 peptide variants were examined in a BIAcore™ (BIAcore, Inc., Piscataway, N.J.) assay using IGFBP-1 covalently coupled via EDC/NHS (as described by the manufacturer) to a dextran chip. […] The latter implies a half-life for peptide dissociation from IGFBP-1 of approximately 28 sec. The association rate constant is moderately fast, consistent with the notion that the peptide may not undergo significant conformation change upon binding to IGFBP-1.

IGFBP-1 [8] = target: T1, IGFBP-1; assay: IGF-blocking phage assay on IGFBP-1 coated plate; assay type: binding; details: FIG. 28
Description: To distinguish among these possibilities, phage clones were tested for the ability to bind to IGFBP-1 or IGFBP-3 in the presence and absence of IGF-I.
IGFBP-1 or IGFBP-3 was coated directly onto MAXISORP™ plates as above. Phage from clonal cultures were mixed with IGF-I (100 nM final concentration), and incubated with the immobilized IGFBP for 1 hour at room temperature. The plates were then washed ten times, as above, and a solution of rabbit anti-phage antibody mixed with a goat-anti-rabbit conjugate of horse radish peroxidase was added. After an incubation of 1 hour at room temperature, the plates were developed with a chromogenic substrate, o-phenylenediamine (Sigma). The reaction was stopped with addition of ½ volume of 2.5 M H2SO4. Optical density at 490 nm was measured on a spectrophotometric plate reader.
These peptides are thus likely to occupy an overlapping site with the IGF-binding epitope on IGFBP-3. […] Additional peptide-phage clones were screened similarly, at a low concentration of phage, with and without IGF-I.

| Molecule | IGF-I Inhibition IC50 (mut)/IC50 (wt) (IGFBP-1 [1]) | effect on IGF-I activity in KIRA with IGF-I plus IGFBP-3 (IGFBP-3 [2]) | inhibition of biotinylated IGFBP-3 binding to IGF-I plate (IGFBP-3 [3]) | IC50 (IGFBP-1 [4]) | IGF-II Inhibition IC50 (mut)/IC50 (wt) (IGFBP-1 [5]) | IC50 (IGFBP-1 [6]; 20 nM biotinylated IGFBP-1, IGF-I coated plate, read-out: ELISA IC50, inhibition of IGF-I binding to IGFBP-1) | IGF-I Inhibition IC50 (mut)/IC50 (wt) (IGFBP-1 [6]; C-terminal bp1-01 variants by ELISA) | IGF-I Inhibition IC50 (mut)/IC50 (wt) (IGFBP-1 [6]; bp1-01 non-natural variants by ELISA, a = D-alanine, aib = alpha-aminoisobutyrate) | IGF-I Inhibition IC50 (mut)/IC50 (wt) (IGFBP-1 [6]; g8 bp1-01 selectants by ELISA plate assay, wt = bp1-01) | dissociation rate constant / dissociation kinetics (IGFBP-1 [7]) | inhibition of phage binding to IGFBP-1 by IGF-I in phage titration (IGFBP-1 [8]) |
| --- | --- | --- | --- | --- | --- | --- | --- | --- | --- | --- | --- |
| CC(C)C[C@@H]1NC(=O)[C@H](Cc2c[nH]c3ccccc23)NC(=O)[C@H](CCC(N)=O)NC(=O)[C@H](CC(C)C)NC(=O)[C@@H]2CCCN2C(=O)CNC(=O)[C@H](C)NC(=O)[C@H](CCCNC(=N)N)NC(=O)[C@@H](N)CSSC[C@@H](C(=O)N[C@@H](CCC(=O)O)C(=O)N[C@@H](CCCCN)C(=O)N[C@@H](Cc2ccc(O)cc2)C(=O)N[C@@H](Cc2ccccc2)C(=O)NCC(N)=O)NC1=O [bp1-01] (H-CRAGPLQWLCEKYFG-NH2; disulfide 1-10; N-terminus assumed) | 1 | Neither of these peptides showed activity | no inhibition | 397 nM | 1 | ~180 nM and 180 nM | 1 | 1 | 1 | too rapid to measure |  |
| SEVGCRAGPLQWLCEKYF [HL-1] |  |  |  |  |  |  |  |  |  |  | inhibited by IGF-I for binding to IGFBP-1 at some phage concentration |
